Assays:
[1] = VLA-4/VCAM-1 cell adhesion inhibition test; type: cell-based; settings: Homo sapiens; adhesion of BCECF-labeled HL-60 cells to VCAM-1-expressing CHO cells; read-out: 50% Inhibition Concentration
Description: VCAM-1-expressing CHO cells were placed in a 96-well cuture plate in an amount of 7×10^3 cells/well, and were cultured in Ham's F-12 medium containing 10 vol % fetal calf serum (FCS) for 3 days until a confluent state was satisfied. HL-60 cells were re-flotated in Hanks' solution containing 0.4 wt % bovine serum albumin (BSA), and fluorescence-labeled by adding 5 μM of 2′,7′-bis(carboxyethyl)-5(6)-carboxy fluorescein pentaacetoxymethyl ester (BCECF-AM). […]
Thus-pretreated HL-60 cells were then stratified in an amount of 2×10^5 cells/well in each well containing the cultured VCAM-1-expressing CHO cells, and allowed to adhere at 37° C. for 5 minutes. […] The cells were washed, destroyed by adding PBS containing 1 vol % NP-40, and fluorescence intensity of the obtained supernatant was measured using a fluorescence measurement system (Millipore, Model cyto Fluor 2300).
Blank experiment was based on fluorescence intensity of PBS containing 1 vol % NP-40. Standard experiment was carried out using the fluorescence-labeled HL-60 suspensions having a concentration of 2×10^5, 10^5, 2×10^4 and 10^4 cells/mL, respectively, where the suspensions were added to PBS containing 1 vol % NP-40, the cells were destroyed, and the fluorescence intensities of the obtained supernatant were measured. […]

[2] = system: LPAM-1/VCAM-1 adhesion; test: LPAM-1/VCAM-1 adhesion inhibition test

Compound | IC50 [1] [µM] | inhibition activity in LPAM-1/VCAM-1 adhesion inhibition test [2]
CC(C)CNc1cccc(C(Cc2ccc(NC(=O)c3c(Cl)cccc3Cl)cc2)C(=O)O)c1 (stereo not drawn) [Example 27] | 6 | 
COc1ccc(C(Cc2ccc(-c3c(OC)cccc3OC)cc2)C(=O)O)cc1N(CC(C)C)C(=O)C(C)(C)C (stereo not drawn) [Example 106] | 4.1 | showed the inhibition activity

Reference: patent US7335673B2, “2,3-Diphenylpropionic acid derivatives or their salts, medicines or cell adhesion inhibitors containing the same, and their usage” (Kaken Pharmaceutical Co., Ltd., priority 2001, dated 2008)
